≈ marks a conversion by molar mass, not a printed value. Like-named read-outs stand apart in the source and are kept apart here.
What was measured:
[1] = test system: Staph. aureus 209-P; assay: Antibacterial activities, MIC; assay type: cell-based
[2] = test system: Escher. coli NIHJ; assay: Antibacterial activities, MIC; assay type: cell-based
[3] = test system: Kleb Pneumoniae EK-6; assay: Antibacterial activities, MIC; assay type: cell-based
[4] = test system: Ser. marcescens ES-75; assay: Antibacterial activities, MIC; assay type: cell-based
[5] = test system: Morg. morganii EP-14; assay: Antibacterial activities, MIC; assay type: cell-based
[6] = test system: Pseud. aeruginosa EP-01; assay: Antibacterial activities, MIC; assay type: cell-based
[7] = in vivo; conditions: mouse, iv
[8] = Staphylococcus aureus, read-out: MIC
[9] = Escherichia coli, read-out: MIC
[10] = Serratia marcescens, ES75, read-out: MIC
[11] = Morganella morganii, EP14, Morg. morganii EP-14, read-out: MIC
[12] = Pseudomonas aeruginosa, EP01, Pseud. aeruginosa EP-01, read-out: MIC

Structure (SMILES) | MIC [1, 8] | MIC [2, 9] | MIC ([3]; read-out: MIC) | MIC [4, 10] | MIC [5, 11] | MIC [6, 12] | LD50 [7] | MIC [1] | MIC [2] | MIC [3] | MIC [4] | MIC ([5]; Morg. morganii EP-14) | MIC ([6]; Pseud. aeruginosa EP-01)
CC[N+](C)(C/C=C/C1=C(C(=O)[O-])N2C(=O)[C@@H](NC(=O)/C(=N\OC)c3nsc(N)n3)[C@H]2SC1)CC(N)=O (stereo partly drawn) [Example 40] | 0.2 µg/mL (≈ 0.371 µM) | ≤ 0.025 µg/mL | ≤ 0.025 µg/mL | 0.05 µg/mL (≈ 0.0928 µM) | ≤ 0.025 µg/mL | 0.8 µg/mL (≈ 1.49 µM) | ≥ 3000 mg/kg |  |  |  |  |  | 
CO/N=C(\C(=O)N[C@@H]1C(=O)N2C(C(=O)[O-])=C(/C=C/C[N+](C)(C)CC(N)=O)CS[C@H]12)c1nsc(N)n1 [Example 1, 7β-[2-(5-Amino-1,2,4-thiadiazol-3-yl)-(Z)-2-methoxyiminoacetamido]-3-[(E)-3-(carbamoylmethyldimethylammonio)-1-propen-1-yl)-3-cephem-4-carboxylate] | 0.4 µg/mL (≈ 0.763 µM) | 0.05 µg/mL (≈ 0.0953 µM) | 0.05 µg/mL (≈ 0.0953 µM) | 0.1 µg/mL (≈ 0.191 µM) | 0.05 µg/mL (≈ 0.0953 µM) | 0.8 µg/mL (≈ 1.53 µM) | ≥ 3000 mg/kg |  |  |  |  |  | 
CO/N=C(\C(=O)N[C@@H]1C(=O)N2C(C(=O)[O-])=C(/C=C/C[N+](C)(C)[C@H](CO)C(N)=O)CS[C@H]12)c1nsc(N)n1 [Example 39, 7β-[2-(5-Amino-1,2,4-thiadiazol-3-yl)-(Z)-2-methoxyiminoacetamide]-3-[(E)-3-[(1R-carbamoyl-2-hydroxyethyl)dimethylammonio]-1-propenyl]-3-cephem-4-carboxylate] | 0.4 µg/mL (≈ 0.721 µM) | 0.05 µg/mL (≈ 0.0902 µM) | ≤ 0.025 µg/mL | 0.1 µg/mL (≈ 0.18 µM) | 0.05 µg/mL (≈ 0.0902 µM) | 0.8 µg/mL (≈ 1.44 µM) | ≥ 3000 mg/kg |  |  |  |  |  | 
CO/N=C(\C(=O)N[C@@H]1C(=O)N2C(C(=O)[O-])=C(/C=C/C[N+]3(C)CCN(C)CC3)CS[C@H]12)c1nsc(N)n1 [Example 33, 7β-[2-(5-Amino-1,2,4-thiadiazol-3-yl)-(Z)-2-methoxyiminoacetamido]-3-[(E)-3-(1,4-dimethyl-1-piperazinio)-1-propen-1-yl]-3-cephem-4-carboxylate] | 0.2 µg/mL (≈ 0.373 µM) | ≤ 0.025 µg/mL | ≤ 0.025 µg/mL | 0.05 µg/mL (≈ 0.0932 µM) | ≤ 0.025 µg/mL | 1.56 µg/mL (≈ 2.91 µM) | ≥ 3000 mg/kg |  |  |  |  |  | 
CO/N=C(\C(=O)N[C@@H]1C(=O)N2C(C(=O)[O-])=C(/C=C/C[N+](C)(C)Cc3nnco3)CS[C@H]12)c1nsc(N)n1 [Example 20, 7β-[2-(5-Amino-1,2,4-thiadiazol-3-yl)-(Z)-2-methoxyiminoacetamido]-3-[(E)-3-[(1,3,4-oxadiazol-2-yl)methyldimethylammonio]-1-propen-1-yl]-3-cephem-4-carboxylate] | 0.4 µg/mL (≈ 0.728 µM) | ≤ 0.025 µg/mL | ≤ 0.025 µg/mL | 0.1 µg/mL (≈ 0.182 µM) | 0.05 µg/mL (≈ 0.091 µM) | 0.8 µg/mL (≈ 1.46 µM) | ≥ 3000 mg/kg |  |  |  |  |  | 
CO/N=C(\C(=O)N[C@@H]1C(=O)N2C(C(=O)[O-])=C(/C=C/C[N+]34CCOC(C)(C3)OCC4)CS[C@H]12)c1nsc(N)n1 [Example 41, 7β-[2-(5-Amino-1,2,4-thiadiazol-3-yl)-(Z)-2-methoxyiminoacetamide]-3-[(E)-3-(5-aza-1-methyl-2,8-diozabicyclo[3,3,1]nonan-5-io)-1-propenyl]-3-cephem-4-carboxylate] | 0.4 µg/mL (≈ 0.707 µM) | 0.05 µg/mL (≈ 0.0884 µM) | 0.05 µg/mL (≈ 0.0884 µM) | 0.1 µg/mL (≈ 0.177 µM) | 0.05 µg/mL (≈ 0.0884 µM) | 1.56 µg/mL (≈ 2.76 µM) | ≥ 3000 mg/kg |  |  |  |  |  | 
CO/N=C(\C(=O)N[C@@H]1C(=O)N2C(C(=O)[O-])=C(/C=C/C[N+](C)(C)Cc3ccoc3)CS[C@H]12)c1nsc(N)n1 [Example 26, 7β-[2-(5-Amino-1,2,4-thiadiazol-3-yl)-(Z)-2-methoxyiminoacetamido]-3-[(E)-3-[(furan-3-yl)-methyldimethylammonio]-1-propen-1-yl]-3-cephem-4-carboxylate] | 0.2 µg/mL (≈ 0.365 µM) | ≤ 0.025 µg/mL | ≤ 0.025 µg/mL | 0.05 µg/mL (≈ 0.0913 µM) | ≤ 0.025 µg/mL | 3.13 µg/mL (≈ 5.72 µM) |  |  |  |  |  |  | 
CO/N=C(\C(=O)N[C@@H]1C(=O)N2C(C(=O)[O-])=C(/C=C/C[N+]3(CC(N)=O)CC[C@@H](O)C3)CS[C@H]12)c1nsc(N)n1 (stereo partly drawn) [Example 45-1] | 0.4 µg/mL (≈ 0.706 µM) | ≤ 0.025 µg/mL | ≤ 0.025 µg/mL | 0.05 µg/mL (≈ 0.0882 µM) | ≤ 0.025 µg/mL | 0.8 µg/mL (≈ 1.41 µM) |  |  |  |  |  |  | 
CO/N=C(\C(=O)N[C@@H]1C(=O)N2C(C(=O)[O-])=C(/C=C/C[N+]3(C)CCN(S(N)(=O)=O)CC3)CS[C@H]12)c1nsc(N)n1 [Example 27, 7β-[2-(5-Amino-1,2,4-thiadiazol-3-yl)-(Z)-2-methoxyiminoacetamido]-3-[(E)-3-(1-methyl-4-sulfamoyl-1-piperazinio)-1-propen-1-yl]-3-cephem-4-carboxylate] | 0.2 µg/mL (≈ 0.332 µM) | ≤ 0.025 µg/mL | ≤ 0.025 µg/mL | 0.1 µg/mL (≈ 0.166 µM) | 0.05 µg/mL (≈ 0.0831 µM) | 0.8 µg/mL (≈ 1.33 µM) |  |  |  |  |  |  | 
CO/N=C(\C(=O)N[C@@H]1C(=O)N2C(C(=O)[O-])=C(/C=C/C[N+]34CCCN3CCC4)CS[C@H]12)c1nsc(N)n1 [Example 38, 7β-[2-(5-Amino-1,2,4-thiadiazol-3-yl)-(Z)-2-methoxyiminoacetamido]-3-[(E)-3-(1,5-diazabicyclo[3,3,0]octan-1-io)-1-propen-1-yl]-3-cephem-4-carboxylate] | 0.2 µg/mL (≈ 0.374 µM) | ≤ 0.025 µg/mL | ≤ 0.025 µg/mL | 0.1 µg/mL (≈ 0.187 µM) | 0.05 µg/mL (≈ 0.0935 µM) | 1.56 µg/mL (≈ 2.92 µM) |  |  |  |  |  |  | 
CO/N=C(\C(=O)N[C@@H]1C(=O)N2C(C(=O)[O-])=C(/C=C/C[N+]3(C)CCCN3C)CS[C@H]12)c1nsc(N)n1 (single isomer, unassigned) [Example 30-B, 7β-[2-(5-Amino-1,2,4-thiadiazol-3-yl)-(Z)-2-methoxyiminoacetamido]-3-[(E)-(1,2-dimethyl-1-pirazolydinio)-1-propen-1-yl]-3-cephem-4-carboxylate] |  |  |  |  |  |  |  | 0.1 µg/mL (≈ 0.191 µM) | ≤ 0.025 µg/mL | ≤ 0.025 µg/mL | 0.05 µg/mL (≈ 0.0957 µM) | 0.05 µg/mL (≈ 0.0957 µM) | 0.8 µg/mL (≈ 1.53 µM)
CO/N=C(\C(=O)N[C@@H]1C(=O)N2C(C(=O)[O-])=C(/C=C/C[N+]3(C)CC=CC3)CS[C@H]12)c1nsc(N)n1 [Example 2, 7β-[2-(5-Amino-1,2,4-thiadiazol-3-yl)-(Z)-2-methoxyiminoacetamido]-3-[(E)-3-(1-methyl-3-pyrrolinio)-1-propene-1-yl)-3-cephem-4-carboxylate] | 0.2 µg/mL (≈ 0.396 µM) | 0.05 µg/mL (≈ 0.0989 µM) | ≤ 0.025 µg/mL | 0.1 µg/mL (≈ 0.198 µM) | 0.05 µg/mL (≈ 0.0989 µM) | 1.56 µg/mL (≈ 3.09 µM) |  |  |  |  |  |  | 
CO/N=C(\C(=O)N[C@@H]1C(=O)N2C(C(=O)[O-])=C(/C=C/C[n+]3ccc4n3CCOC4)CS[C@H]12)c1nsc(N)n1 [Example 14, 7β-[2-(5-Amino-1,2,4-thiadiazol-3-yl)-(Z)-2-methoxyiminoacetamido]-3-[(E)-(1-morpholino[4,3-b]pyrazolio)-1-propen-1-yl]-3-cephem-4-carboxylate] | 0.2 µg/mL (≈ 0.366 µM) | ≤ 0.025 µg/mL | ≤ 0.025 µg/mL | 0.05 µg/mL (≈ 0.0915 µM) | 0.05 µg/mL (≈ 0.0915 µM) | 1.56 µg/mL (≈ 2.85 µM) |  |  |  |  |  |  | 
CO/N=C(\C(=O)N[C@@H]1C(=O)N2C(C(=O)[O-])=C(/C=C/C[N+](C)(C)CCO)CS[C@H]12)c1nsc(N)n1 [Example 18-A, 7β-[2-(5-Amino-1,2,4-thiadiazol-3-yl)-(Z)-2-methoxyiminoacetamido]-3-[(E)-3-(2-hydroxyethyldimethylammonio)-1-propen-1-yl]-3-cephem-4-carboxylate] | 0.2 µg/mL (≈ 0.391 µM) | ≤ 0.025 µg/mL | ≤ 0.025 µg/mL | 0.1 µg/mL (≈ 0.195 µM) | 0.05 µg/mL (≈ 0.0977 µM) | 0.8 µg/mL (≈ 1.56 µM) |  |  |  |  |  |  | 
CO/N=C(\C(=O)N[C@@H]1C(=O)N2C(C(=O)[O-])=C(/C=C/C[N+]3(C)CC=C(C(N)=O)CC3)CS[C@H]12)c1nsc(N)n1 (stereo partly drawn) [Example 34, 7β-[2-(5-Amino-1,2,4-thiadiazol-3-yl)-(Z)-2-methoxyiminoacetamido]-3-[(E)-3-(1-methyl-4-carbamoyl-1,2,3,6-tetrahydropyridinio)-1-propen-1-yl]-3-cephem-4-carboxylate] | 0.2 µg/mL (≈ 0.355 µM) | ≤ 0.025 µg/mL | 0.1 µg/mL (≈ 0.178 µM) | 0.1 µg/mL (≈ 0.178 µM) | 0.05 µg/mL (≈ 0.0889 µM) | 0.8 µg/mL (≈ 1.42 µM) |  |  |  |  |  |  | 
CCO/N=C(\C(=O)N[C@@H]1C(=O)N2C(C(=O)[O-])=C(/C=C/C[N+](C)(C)CC(N)=O)CS[C@H]12)c1nsc(N)n1 [Example 15, 7β-[2-(5-Amino-1,2,4-thiadiazol-3-yl)-(Z)-2-ethoxyiminoacetamido]-3-[(E)-3-(carbamoylmethyldimethylammonio)-1-propen-1-yl]-3-cephem-4-carboxylate] | 0.2 µg/mL (≈ 0.371 µM) | 0.1 µg/mL (≈ 0.186 µM) | 0.05 µg/mL (≈ 0.0928 µM) | 0.2 µg/mL (≈ 0.371 µM) | 0.05 µg/mL (≈ 0.0928 µM) | 1.56 µg/mL (≈ 2.9 µM) |  |  |  |  |  |  | 
CO/N=C(\C(=O)N[C@@H]1C(=O)N2C(C(=O)[O-])=C(/C=C/C[N+](C)(C)Cc3cc[nH]n3)CS[C@H]12)c1nsc(N)n1 [Example 24, 7β-[2-(5-Amino-1,2,4-thiadiazol-3-yl)-(Z)-2-methoxyiminoacetamido]-3-[(E)-3-[(pyrazol-3-yl)methyldimethylammonio]-1-propen-1-yl]-3-cephem-4-carboxylate] | 0.2 µg/mL (≈ 0.365 µM) | ≤ 0.025 µg/mL | ≤ 0.025 µg/mL | 0.1 µg/mL (≈ 0.183 µM) | 0.05 µg/mL (≈ 0.0913 µM) | 3.13 µg/mL (≈ 5.72 µM) |  |  |  |  |  |  | 
